Experimental data taken from US8003602B2 (priority 2006, dated 2011).
≈ marks a conversion by molar mass, not a printed value.

Legend:
S. aureus (20666) = test: MIC, Macro-broth dilution method; format: cell-based, Staphylococcus aureus
Text: (§1) The in-vitro potency was established by minimum inhibitory concentration (MIC) determinations of the compound PM181104 against bacterial strains, by using the Macro-broth dilution method as per National Committee for Clinical Laboratory Standards (2000) guidelines [Journal of Anti-microbial Chemotherapy, 2002, 50, 125-128 (Cross Reference 8: Methods for Dilution Antimicrobial Susceptibility Tests for Bacteria that Grow Aerobically-Fifth Edition: Approved Standard M7-A5. NCCLS, Wayne, Pa., USA)]. Unless stated otherwise, Mueller-Hinton broth was used as nutrient medium for the assay. Linezolid (manufactured by Glenmark Pharma Ltd; Batch no: K2005028) was used as known standard in all in-vitro experiments. For preparation of the stock solution the compound PM181104 was dissolved in chloroform (5% of the total required volume) and diluted using methanol (95% of the total required volume).

S. aureus (789) = test: MIC, Macro-broth dilution method; format: cell-based, Staphylococcus aureus
Text: as §1

S. aureus ATCC29213 = test: MIC, Macro-broth dilution method; format: cell-based, Staphylococcus aureus
Text: as §1

S. aureus KEM-MRSA11 = test: MIC, Macro-broth dilution method; format: cell-based, Staphylococcus aureus
Text: as §1

S. aureus KEM-MRSA12 = test: MIC, Macro-broth dilution method; format: cell-based, Staphylococcus aureus
Text: as §1

S. aureus KEM-MRSA18 = test: MIC, Macro-broth dilution method; format: cell-based, Staphylococcus aureus
Text: as §1

S. aureus KEM-MRSA19 = test: MIC, Macro-broth dilution method; format: cell-based, Staphylococcus aureus
Text: as §1

S. aureus KEM-MRSA20 = test: MIC, Macro-broth dilution method; format: cell-based, Staphylococcus aureus
Text: as §1

S. aureus KEM-MRSA21 = test: MIC, Macro-broth dilution method; format: cell-based, Staphylococcus aureus
Text: as §1

S. aureus KEM-MRSA23 = test: MIC, Macro-broth dilution method; format: cell-based, Staphylococcus aureus
Text: as §1

S. aureus KEM-MRSA2 = test: MIC, Macro-broth dilution method; format: cell-based, Staphylococcus aureus
Text: as §1

S. aureus SG511 = test: MIC, Macro-broth dilution method; format: cell-based, Staphylococcus aureus
Text: as §1

S. aureus wien13 = test: MIC, Macro-broth dilution method; format: cell-based, Staphylococcus aureus
Text: as §1

S. epidermidis 10221II W = test: MIC, Macro-broth dilution method; format: cell-based, Staphylococcus epidermidis
Text: as §1

S. epidermidis 32965 = test: MIC, Macro-broth dilution method; format: cell-based, Staphylococcus epidermidis
Text: as §1

S. epidermidis 5744IW = test: MIC, Macro-broth dilution method; format: cell-based, Staphylococcus epidermidis
Text: as §1

S. epidermidis 6098 = test: MIC, Macro-broth dilution method; format: cell-based, Staphylococcus epidermidis
Text: as §1

[1] = test system: S. epidermidis 6493II(2)W; test: MIC, Macro-broth dilution method; format: cell-based, Staphylococcus epidermidis
Text: as §1

S. epidermidis 823 = test: MIC, Macro-broth dilution method; format: cell-based, Staphylococcus epidermidis
Text: as §1

S. epidermidis Pat 01 IV = test: MIC, Macro-broth dilution method; format: cell-based, Staphylococcus epidermidis
Text: as §1

E. faecium (R-2) = format: cell-based, Enterococcus faecium; conditions: E. faecium R-2 (VRE)
Text: as §1

E. faecium ATCC 51559 = format: cell-based, Enterococcus faecium
Text: as §1

B. megaterium FH 1127 = test: MIC, Macro-broth dilution method; format: cell-based, Bacillus megaterium
Text: as §1

B. firmus = test: MIC, Macro-broth dilution method; format: cell-based, Bacillus firmus
Text: as §1

[2] = test system: methicillin resistant Staphylococcus aureus E710 (MRSA); test: Systemic infection model (septicemia); format: in vivo, Balb/C mice; conditions: mice infected intraperitoneally with MRSA E710, administered intravenously immediately after infection
Text: (§2) The in-vivo potency was established by protection dose (PD) determinations of the compound PM181104 for its antibiotic activity in three animal models using either male or female Balb/C mice.
(§3) The models used were the general purpose efficacy testing models and organ/tissue specific efficacy testing models. The general purpose efficacy testing models used were systemic infection model (septicemia), and localized infection model (neutropenic thigh model). The Organ/Tissue specific infection models used for efficacy testing were kidney, lung infection, and skin abscess model.
The animals were infected intraperitoneally with ˜10^8 to 10^9 cfu of an overnight grown culture of methicillin resistant Staphylococcus aureus E710 (MRSA), suspended in normal saline (0.85% sodium chloride). PM181104 solution was prepared in cremophor-ethanol formulation as described in example 14. The solution was administered intravenously at 5 mg, 2.5 mg and 1.25 mg/kg doses, immediately after infection. Each experimental group consisted of ten animals.

S. aureus E-710 = test: Neutropenic thigh model; format: in vivo, Balb/C mice; conditions: 5 mg/kg intravenously two hours post infection, 6 hour time point
Text: as §2, §3
Each experimental group consisted of six animals. PM181104 was prepared in cremophor-ethanol formulation as described in example 14.

[3] = test system: Enterococcus faecium ATCC 47077; test: Kidney infection model; format: in vivo, Balb/C mice; conditions: 5 mg/kg intravenously at 4, 24 and 48 hours post-infection, kidneys harvested at 72 hours
Text: as §2, §3
0.2 ml of 2% λ Carrageenan was administered intravenously to Balb/C mice 7 days prior to infection. Overnight grown log phase culture of Enterococcus faecium ATCC 47077 adjusted to approximately 10^9 cfu/ml, was injected intravenously to the mice at a volume of 0.2 ml. PM181104 solution, prepared in cremophor-ethanol formulation as described in example 14, was administered intravenously to the mice at 4 hours, 24 hours and 48 hours post-infection. At 72 hours post infection, the animals were sacrificed and kidneys were harvested to determine the bacterial load. […] Linezolid (manufactured by Glenmark Pharma Ltd; Batch no: K2005028) at 25 mg/kg and Vancomycin hydrochloride (manufactured by HiMedia; Catalogue no: RM217-500 mg; Lot no: 06-0350) at 150 mg/kg dose.

[4] = solvents in which soluble
Text: The physico-chemical and spectral properties of the compound PM181104

`C=C(NC(=O)C(=C)NC(=O)C1CCCN1C(=O)c1nc(-c2ccc(-c3nc(C(=O)NC(=C)C(=O)NC(C)C(N)=O)cs3)c(-c3csc(C4Cc5nc(cs5)C(=O)NC(Cc5ccccc5)C5=NC(CS5)C(=O)NC(Cc5ccc(O)cc5)C(=O)N5CCCC5c5nc(cs5)C(=O)N4)n3)n2)oc1C)C(N)=O` (stereo not shown) [PM181104] showed an MIC (S. aureus (20666)) of 0.01563 µg/mL (≈ 0.0103 µM), an MIC (S. aureus (789)) of 0.00781 µg/mL (≈ 0.00515 µM) and an MIC (S. aureus ATCC29213) of 0.03125 µg/mL (≈ 0.0206 µM). It also gave an MIC (S. aureus KEM-MRSA11) of 0.0625 µg/mL (≈ 0.0412 µM), an MIC (S. aureus KEM-MRSA12) of 0.01563 µg/mL (≈ 0.0103 µM) and an MIC (S. aureus KEM-MRSA18) of 0.01563 µg/mL (≈ 0.0103 µM). It also gave an MIC (S. aureus KEM-MRSA19) of 0.00781 µg/mL (≈ 0.00515 µM), an MIC (S. aureus KEM-MRSA20) of 0.01563 µg/mL (≈ 0.0103 µM) and an MIC (S. aureus KEM-MRSA21) of 0.01563 µg/mL (≈ 0.0103 µM). It also gave an MIC (S. aureus KEM-MRSA23) of 0.01563 µg/mL (≈ 0.0103 µM), an MIC (S. aureus KEM-MRSA2) of 0.03125 µg/mL (≈ 0.0206 µM) and an MIC (S. aureus SG511) of 0.0625 µg/mL (≈ 0.0412 µM). For the same molecule, the MIC (S. aureus wien13) was 0.0625 µg/mL (≈ 0.0412 µM), the MIC (S. epidermidis 10221II W) was 0.00781 µg/mL (≈ 0.00515 µM) and the MIC (S. epidermidis 32965) was 0.03125 µg/mL (≈ 0.0206 µM). It also gave an MIC (S. epidermidis 5744IW) of 0.01563 µg/mL (≈ 0.0103 µM), an MIC (S. epidermidis 6098) of 0.0625 µg/mL (≈ 0.0412 µM) and an MIC [1] of 0.0625 µg/mL (≈ 0.0412 µM). It also gave an MIC (S. epidermidis 823) of 0.03125 µg/mL (≈ 0.0206 µM), an MIC (S. epidermidis Pat 01 IV) of 0.0625 µg/mL (≈ 0.0412 µM) and an MIC (E. faecium (R-2)) of 0.00781 µg/mL (≈ 0.00515 µM). The MIC (E. faecium ATCC 51559) was 0.00781 µg/mL (≈ 0.00515 µM), the MIC (B. megaterium FH 1127) was 0.00781 µg/mL (≈ 0.00515 µM) and the MIC (B. firmus) was 0.01563 µg/mL (≈ 0.0103 µM). For the same molecule, the PD100 [2] was 5 mg/kg, the “decrease in viable counts in thigh tissue” value (S. aureus E-710) was “approximately 1 log” and the “decrease in bacterial count in kidneys” value [3] was “approximately 1 log”. For the same molecule, the Solubility [4] was “Methanol, DMSO”.
